The test system of one series is colon carcinoma HT-29. The series is described as follows: In vitro proliferation assay (sulforhodamine B), HT-29. In kind it is cell-based, human. Here is the method: (§1) The possible antitumoral activity of these new compounds was analyzed by the effects exerted on the proliferation of five human tumor cell lines of different histotype. Therefore, the modifications on cell viability and replication determined by the treatment with each single compound were evaluated. The following human tumor cell lines triple-negative breast cancer MDA-MB231, colon carcinoma HT-29, glioblastoma multiforme U-87 MG, tongue squamous cell carcinoma CAL27 and pharynx squamous cell carcinoma FaDu were treated for 24 and 48 h with 10, 20, 30, 40, 50 and 60 μM of each single compound.
(§2) Anti-proliferative activities are reported in Table 2 (compounds 1b–g, 3) and Table 3 (compounds 2a–f) in comparison with reference compound 1a.
(§3) The following human tumor cell lines were utilized in the present study: glioblastoma multiforme U-87 MG, triple-negative breast cancer MDA-MB231, colon carcinoma HT-29, tongue squamous cell carcinoma CAL27 and pharynx squamous cell carcinoma FaDu, all of which obtained from the American Type Culture Collection (Manassas, VA, USA). In addition, human dermal fibroblast primary cultures (HF) used as control of non-transformed cells, had been previously established in our laboratory.
(§4) The cells were grown at 37 °C and 5% CO2 in Dulbecco’s modified Eagle’s medium or RPMI 1640 medium supplemented with 10% fetal bovine serum, 2 mM glutamine and 50 U/mL penicillin-streptomycin (Sigma-Aldrich).
(§5) All compounds were solubilized in dimethylsulfoxide (DMSO) (Sigma) for a 10 mM stock solution and utilized to final concentrations from 100 nM to 60 μM for 24 and 48 h. Control cells were treated with equivalent amounts of DMSO in every experiment.
(§6) To determine cytotoxicity, a sulforhodamine B colorimetric assay was performed. Cells (1.5 × 10^4) were plated in a 96-well plate, grown for 24 h and then treated with different concentrations of each compound for 24 and 48 h at 37 °C. Cells were then fixed with 50% trichloroacetic acid for 1 h at 4 °C and stained for 30 min at room temperature with 0.4% sulforhodamine B in 1% acetic acid. Excess dye was removed by washing four times with 1% acetic acid. Protein-bound dye was dissolved in 10 mM Tris (pH 10), and optical density was determined at 510 nm using a microplate reader. Each experiment was performed three times and the media was calculated.

The test system of series [1] is glioblastoma multiforme U-87 MG. Put plainly: In vitro proliferation assay (sulforhodamine B), U-87 MG. It is filed as cell-based, human. The note with it: 48 h. The protocol:
as §1, §2, §3, §4, §5, §6

The subject of series [2] is triple-negative breast cancer MDA-MB231. The series is described as follows: In vitro proliferation assay (sulforhodamine B), MDA-MB231. In kind it is cell-based, human. The note with it: 48 h. Here is the method:
as §1, §2, §3, §4, §5, §6

The test system of series [3] is tongue squamous cell carcinoma CAL27. The series is described as follows: In vitro proliferation assay (sulforhodamine B), CAL27. It is filed as cell-based, human. The protocol: as §1, §2, §3, §4, §5, §6
Series [4] concerns pharynx squamous cell carcinoma FaDu. Put plainly: In vitro proliferation assay (sulforhodamine B), FaDu. In kind it is cell-based, human. Here is the method:
as §1, §2, §3, §4, §5, §6

The nature of series [5]: Cytotoxicity on normal cells (sulforhodamine B), HF. It is filed as cell-based, human. The note with it: human, human dermal fibroblast primary cultures (HF), 48 h. Here is the method: as §3, §4, §5, §6
In series [6] the test system is human dermal fibroblasts (HF). Described as above. It is filed as cell-based. Here is the method: as §3, §4, §5, §6
Series [7] has as its system five human tumor cell lines (HT-29, U-87 MG, MDA-MB231, CAL27, FaDu). The series is described as follows: In vitro proliferation assay, summary over all tested tumor cell lines. It is filed as cell-based. The note with it: Homo sapiens, all tested tumor cell lines, read-out: EC50s over the tested cell lines. Here is the method:
as §1, §2, §3, §4, §5, §6

Where [8] appears, read: Homo sapiens, HT-29, 24 h, 24 h.
Setting [9] is: Homo sapiens, HT-29, 48 h, 48 h.
Setting [10] is: Homo sapiens, CAL-27, 48 h, 48 h.

Molecules are shown by their SMILES. Where a name gives a salt, the structure may show the parent alone. Read-outs that look alike come from different tables or passages of the source.

In the case of `COc1cccc(Nc2cc(N)nc(Nc3cccc(OC)c3)n2)c1` [Compound 3, N^2,N^4-bis(3-Methoxyphenyl)pyrimidine-2,4,6-triamine], the EC50 was 28.2 µM with colon carcinoma HT-29 (setting [8]); 11.7 µM in the series on colon carcinoma HT-29 (setting [9]); 22.9 µM in series [1] (Homo sapiens, U-87 MG); 10.2 µM in series [2] (Homo sapiens, MDA-MB-231, 48 h); 20.3 µM in series [3] (Homo sapiens, CAL-27, 24 h, 24 h); 10.4 µM in series [3] (setting [10]). The EC50 is 42.1 µM in series [4] (Homo sapiens, FaDu, 24 h) and ≤ 20 µM in series [7] (48 h of treatment). Also, it took 65 µM to reach half-maximal cytotoxicity in series [5] (CC50 at 48 h). For the same compound, in series [6], the “cytotoxic activity on normal somatic cells, not cytotoxic up to” value is > 60 µM.
`CCN(CC)CCCNc1cc(N)nc(Nc2cccc([N+](=O)[O-])c2)n1` [Compound 1d, N^4-(3-(Diethylamino)propyl)-N^2-(3-nitrophenyl)pyrimidine-2,4,6-triamine]: the EC50 in the series on colon carcinoma HT-29 (setting [9]) stood at 40.4 µM; in series [1] (Homo sapiens, U-87 MG), 54.9 µM; in series [2] (Homo sapiens, MDA-MB-231, 48 h), 49.2 µM; in series [3] (setting [10]) it was 35.3 µM; in series [4] (Homo sapiens, FaDu, 48 h), 46.8 µM. For the same compound, the CC50 (as a rule, the concentration giving 50% cytotoxicity) at 48 h in series [5] was 97 µM.
`CCN(CC)CCCNc1cc(N)nc(Nc2cccc(F)c2)n1` [Compound 1b, N^4-(3-(Diethylamino)propyl)-N^2-(3-fluorophenyl)pyrimidine-2,4,6-triamine]: the EC50 in the series with colon carcinoma HT-29 (setting [9]) came out at 29.8 µM; in series [1] (Homo sapiens, U-87 MG) it was 47.3 µM; in series [2] (Homo sapiens, MDA-MB-231, 48 h), 35.7 µM; in series [3] (48 h) it was 20.3 µM; in series [3] (setting [10]), 20 µM; in series [4] (Homo sapiens, FaDu, 48 h) it was 43.4 µM. The midpoint of cytotoxicity in series [5], the CC50 at 48 h, lay at 88 µM.
Turning to `CCN(CC)CCCNc1cc(N)nc(Nc2cccc(OC)c2)n1` [Compound 1c, N^4-(3-(Diethylamino)propyl)-N^2-(3-methoxyphenyl)pyrimidine-2,4,6-triamine], the EC50 was 57 µM in the series with colon carcinoma HT-29 (setting [9]); > 60 µM in series [1] (Homo sapiens, U-87 MG); 70.5 µM in series [2] (Homo sapiens, MDA-MB-231, 48 h); 57 µM in series [3] (setting [10]); 71 µM in series [4] (Homo sapiens, FaDu, 48 h); > 60 µM in series [7] (time not given).
Regarding `CCCN(CCC)c1cc(N)nc(Nc2ccc(Cl)cc2F)n1` [Compound 1f, N^2-(4-Chloro-2-fluorophenyl)-N^4,N^4-dipropylpyrimidine-2,4,6-triamine], the EC50 was 50 µM in the series on colon carcinoma HT-29 (setting [9]); > 60 µM in series [1] (Homo sapiens, U-87 MG); 58 µM in series [2] (Homo sapiens, MDA-MB-231, 48 h); 55 µM in series [3] (setting [10]); 67 µM in series [4] (Homo sapiens, FaDu, 48 h); 50 to 75 µM in series [7] (time not given). Besides, the CC50 at 48 h in series [5] is 98 µM.
Regarding `CCN(CC)CCCNc1cc(N)nc(N(Cc2ccc(F)cc2)c2cccc([N+](=O)[O-])c2)n1` [Compound 2d, N^4-(3-(Diethylamino)propyl)-N^2-(4-fluorobenzyl)-N^2-(3-nitrophenyl)pyrimidine-2,4,6-triamine], the EC50 in the series on colon carcinoma HT-29 (setting [8]) is 25.2 µM; in the series with colon carcinoma HT-29 (setting [9]), 12.7 µM; in series [1] (Homo sapiens, U-87 MG), 30.1 µM; in series [2] (Homo sapiens, MDA-MB-231, 48 h), 17.3 µM; in series [3] (setting [10]) it was 10.3 µM; in series [4] (Homo sapiens, FaDu, 48 h) it was 20.5 µM. Also, the CC50 at 48 h in series [5] is 55.2 µM.
Turning to `CCCN(CCC)c1cc(N)nc(N(Cc2ccc(F)cc2)c2cccc(Cl)c2)n1` [Compound 2e, N^2-(3-Chlorophenyl)-N^2-(4-fluorobenzyl)-N^4,N^4-dipropylpyrimidine-2,4,6-triamine], the EC50 in the series with colon carcinoma HT-29 (setting [9]) is > 60 µM; in series [1] (Homo sapiens, U-87 MG) it was > 60 µM; in series [2] (Homo sapiens, MDA-MB-231, 48 h) it was > 60 µM; in series [3] (setting [10]) it was 59.3 µM; in series [4] (Homo sapiens, FaDu, 48 h), > 60 µM; in series [7] (time not given), > 60 µM.
As for `CCCN(CCC)c1cc(N)nc(Nc2cccc(Cl)c2)n1` [Compound 1e, N^2-(3-chlorophenyl)-N^4,N^4-dipropylpyrimidine-2,4,6-triamine], the EC50 was 28.5 µM in the series on colon carcinoma HT-29 (48 h); 45.3 µM in series [1]; 34.2 µM in series [2]; 24.7 µM in series [3] (48 h); 29.7 µM in series [4] (48 h); 25 to 45 µM in series [7] (48 h of treatment). The CC50 in series [6] (48 h) worked out at 68 µM. Besides, the “cytotoxic activity on normal somatic cells, not cytotoxic up to” value in series [6] was > 60 µM.
Take `CCN(CC)CCCNc1cc(N)nc(N(Cc2ccc(F)cc2)c2cccc(OC)c2)n1` [Compound 2c, N^4-(3-(diethylamino)propyl)-N^2-(4-fluorobenzyl)-N^2-(3-methoxyphenyl)-pyrimidine-2,4,6-triamine]: the EC50 with colon carcinoma HT-29 (setting [8]) is 34.7 µM; in the series on colon carcinoma HT-29 (setting [9]), 18.3 µM; in series [1] (Homo sapiens, U-87 MG), 19.8 µM; in series [2] (Homo sapiens, MDA-MB-231, 48 h), 27.2 µM; in series [3] (setting [10]), 14.9 µM; in series [4] (48 h), 18.2 µM. Further, the EC50 is 18 µM in series [4] (Homo sapiens, FaDu, 48 h) and 15 to 35 µM in series [7] (time not given). For the same compound, the “folds more active than 3” value in series [4] (FaDu, 48 h of treatment, 2c vs 3) is given as “about 2.5 folds”. Moreover, it took 50.3 µM to reach half-maximal cytotoxicity in series [5] (CC50 at 48 h).
`CCCN(CCC)c1cc(N)nc(Nc2cccc(Cl)c2)n1` [Compound 1e-HCl, N^2-(3-chlorophenyl)-N^4,N^4-dipropylpyrimidine-2,4,6-triamine hydrochloride]: the EC50 in the series on colon carcinoma HT-29 (setting [9]) came out at 29.3 µM; in series [1] (Homo sapiens, U-87 MG), 36.6 µM; in series [2] (Homo sapiens, MDA-MB-231, 48 h), 50.2 µM; in series [3] (setting [10]), 30.3 µM; in series [4] (Homo sapiens, FaDu, 48 h), 39.8 µM. The CC50 at 48 h in series [5] is > 60 µM.
Turning to `CCN(CC)CCCNc1cc(N)nc(N(Cc2ccc(F)cc2)c2cccc(F)c2)n1` [Compound 2b, N^4-(3-(diethylamino)propyl)-N^2-(4-fluorobenzyl)-N^2-(3-fluorophenyl)pyrimidine-2,4,6-triamine], the EC50 in the series with colon carcinoma HT-29 (setting [8]) was 20.2 µM; in the series with colon carcinoma HT-29 (setting [9]), 10.4 µM; in series [1] (Homo sapiens, U-87 MG), 17.7 µM; in series [2] (Homo sapiens, MDA-MB-231, 48 h) it was 7.3 µM; in series [3] (setting [10]), 5.1 µM; in series [4] (Homo sapiens, FaDu, 48 h), 23.8 µM. In series [5], this compound had a CC50 at 48 h of 54.7 µM.
For `CN1CCN(c2cc(N)nc(Nc3cccc(Cl)c3)n2)CC1` [Compound 1g, N^2-(3-Chlorophenyl)-6-(4-methylpiperazin-1-yl)pyrimidine-2,4-diamine], the EC50 was 60 µM with colon carcinoma HT-29 (setting [9]); > 60 µM in series [1] (Homo sapiens, U-87 MG); 55 µM in series [2] (Homo sapiens, MDA-MB-231, 48 h); 60 µM in series [3] (setting [10]); 87 µM in series [4] (Homo sapiens, FaDu, 48 h).
Turning to `CCCN(CCC)c1cc(N)nc(N(Cc2ccc(F)cc2)c2ccc(Cl)cc2F)n1` [Compound 2f, N^2-(4-Chloro-2-fluorophenyl)-N^2-(4-fluorobenzyl)-N^4,N^4-dipropylpyrimidine-2,4,6-triamine], the EC50 with colon carcinoma HT-29 (setting [9]) was 30 µM; in series [1] (Homo sapiens, U-87 MG), > 60 µM; in series [2] (Homo sapiens, MDA-MB-231, 48 h) it was 58.3 µM; in series [3] (48 h) it was 45.4 µM; in series [3] (setting [10]), 45 µM; in series [4] (Homo sapiens, FaDu, 48 h) it was > 60 µM.

The record behind these values is article PMC7867324, “Design, Synthesis and Biological Evaluation of New Pyrimidine Derivatives as Anticancer Agents” (Molecules, 2021).
